Laboratory results reported in the NIST ThermoML archive (doi:10.1016/j.jct.2006.08.009).

Test: mn = molality of the nth substance listed, in mol/kg
Details: 350 kPa, Liquid; for apparent molar heat capacity: Extra sensitive DSC

OC[C@@H](O)[C@@H](O)[C@@H](O)CO [SRS-1,2,3,4,5-pentanepentol] + O
Details | apparent molar heat capacity [J/K/mol] | mass density [kg/m3]
278.15 K, m1 = 0.0196 | 335 | 1001.15
278.15 K, m1 = 0.0506 | 329.5 | 1002.66
278.15 K, m1 = 0.1042 | 335.2 | 1005.31
278.15 K, m1 = 0.2591 | 334.4 | 1012.83
278.15 K, m1 = 0.5092 | 334.9 | 1024.77
278.15 K, m1 = 0.9969 | 336.5 | 1046.03
278.15 K, m1 = 1.998 | 336.2 | 1084.53
278.15 K, m1 = 3.177 | 339.7 | 1119.46
283.15 K, m1 = 0.0196 | 354 | 1000.8
283.15 K, m1 = 0.0506 | 343 | 1002.31
283.15 K, m1 = 0.1042 | 350.4 | 1004.94
283.15 K, m1 = 0.2591 | 349.6 | 1012.39
283.15 K, m1 = 0.5092 | 349.7 | 1024.17
283.15 K, m1 = 0.9969 | 350.6 | 1045.12
283.15 K, m1 = 1.998 | 349.4 | 1083.19
283.15 K, m1 = 3.177 | 351.5 | 1117.64
288.15 K, m1 = 0.0196 | 368 | 1000.18
288.15 K, m1 = 0.0506 | 354.3 | 1001.7
288.15 K, m1 = 0.1042 | 362 | 1004.3
288.15 K, m1 = 0.2591 | 361.4 | 1011.68
288.15 K, m1 = 0.5092 | 361.4 | 1023.3
288.15 K, m1 = 0.9969 | 361.7 | 1044.05
288.15 K, m1 = 1.998 | 359.9 | 1081.81
288.15 K, m1 = 3.177 | 361.1 | 1115.96
293.15 K, m1 = 0.0196 | 377 | –
293.15 K, m1 = 0.0506 | 365.3 | –
293.15 K, m1 = 0.1042 | 371.7 | –
293.15 K, m1 = 0.2591 | 371.2 | –
293.15 K, m1 = 0.5092 | 371 | –
293.15 K, m1 = 0.9969 | 371 | –
293.15 K, m1 = 1.998 | 368.5 | –
293.15 K, m1 = 3.177 | 369.4 | –
298.15 K, m1 = 0.0196 | 385 | 998.09
298.15 K, m1 = 0.0506 | 375.1 | 999.6
298.15 K, m1 = 0.1042 | 380.2 | 1002.18
298.15 K, m1 = 0.2591 | 379.6 | 1009.48
298.15 K, m1 = 0.5092 | 379.3 | 1020.79
298.15 K, m1 = 0.9969 | 379 | 1041.23
298.15 K, m1 = 1.998 | 376.1 | 1078.43
298.15 K, m1 = 3.177 | 376.6 | 1112.13
303.15 K, m1 = 0.0196 | 392 | –
303.15 K, m1 = 0.0506 | 383.2 | –
303.15 K, m1 = 0.1042 | 387.5 | –
303.15 K, m1 = 0.2591 | 386.8 | –
303.15 K, m1 = 0.5092 | 386.4 | –
303.15 K, m1 = 0.9969 | 385.9 | –
303.15 K, m1 = 1.998 | 382.8 | –
303.15 K, m1 = 3.177 | 383 | –
308.15 K, m1 = 0.0196 | 397 | 995.08
308.15 K, m1 = 0.0506 | 389.5 | 996.56
308.15 K, m1 = 0.1042 | 393.6 | 999.1
308.15 K, m1 = 0.2591 | 393 | 1006.35
308.15 K, m1 = 0.5092 | 392.6 | 1017.44
308.15 K, m1 = 0.9969 | 392 | 1037.61
308.15 K, m1 = 1.998 | 388.8 | 1074.35
308.15 K, m1 = 3.177 | 388.8 | 1107.66
313.15 K, m1 = 0.0196 | 403 | –
313.15 K, m1 = 0.0506 | 395.7 | –
313.15 K, m1 = 0.1042 | 399.2 | –
313.15 K, m1 = 0.2591 | 398.6 | –
313.15 K, m1 = 0.5092 | 398.2 | –
313.15 K, m1 = 0.9969 | 397.4 | –
313.15 K, m1 = 1.998 | 394.1 | –
313.15 K, m1 = 3.177 | 393.9 | –
318.15 K, m1 = 0.0196 | 408 | 991.29
318.15 K, m1 = 0.0506 | 401.1 | 992.73
318.15 K, m1 = 0.1042 | 404.3 | 995.28
318.15 K, m1 = 0.2591 | 403.7 | 1002.45
318.15 K, m1 = 0.5092 | 403.2 | 1013.36
318.15 K, m1 = 0.9969 | 402.3 | 1033.3
318.15 K, m1 = 1.998 | 398.9 | 1069.71
318.15 K, m1 = 3.177 | 398.6 | 1102.66
323.15 K, m1 = 0.0196 | 412.3 | –
323.15 K, m1 = 0.0506 | 405.8 | –
323.15 K, m1 = 0.1042 | 408.7 | –
323.15 K, m1 = 0.2591 | 408.1 | –
323.15 K, m1 = 0.5092 | 407.6 | –
323.15 K, m1 = 0.9969 | 406.7 | –
323.15 K, m1 = 1.998 | 403.3 | –
323.15 K, m1 = 3.177 | 402.8 | –
328.15 K, m1 = 0.0196 | 415.7 | 986.75
328.15 K, m1 = 0.0506 | 409.7 | 988.19
328.15 K, m1 = 0.1042 | 412.7 | 990.72
328.15 K, m1 = 0.2591 | 412.2 | 997.84
328.15 K, m1 = 0.5092 | 411.6 | 1008.63
328.15 K, m1 = 0.9969 | 410.7 | 1028.38
328.15 K, m1 = 1.998 | 407.3 | 1064.46
328.15 K, m1 = 3.177 | 406.7 | 1097.15
333.15 K, m1 = 0.0196 | 419.1 | –
333.15 K, m1 = 0.0506 | 413.4 | –
333.15 K, m1 = 0.1042 | 416.3 | –
333.15 K, m1 = 0.2591 | 415.8 | –
333.15 K, m1 = 0.5092 | 415.3 | –
333.15 K, m1 = 0.9969 | 414.3 | –
333.15 K, m1 = 1.998 | 410.9 | –
333.15 K, m1 = 3.177 | 410.3 | –
338.15 K, m1 = 0.0196 | 422.2 | 981.58
338.15 K, m1 = 0.0506 | 416.9 | 983.05
338.15 K, m1 = 0.1042 | 419.6 | 985.54
338.15 K, m1 = 0.2591 | 419.2 | 992.64
338.15 K, m1 = 0.5092 | 418.6 | 1003.33
338.15 K, m1 = 0.9969 | 417.6 | 1022.96
338.15 K, m1 = 1.998 | 414.3 | 1058.79
338.15 K, m1 = 3.177 | 413.6 | 1091.26
343.15 K, m1 = 0.0196 | 424.8 | –
343.15 K, m1 = 0.0506 | 420 | –
343.15 K, m1 = 0.1042 | 422.7 | –
343.15 K, m1 = 0.2591 | 422.2 | –
343.15 K, m1 = 0.5092 | 421.6 | –
343.15 K, m1 = 0.9969 | 420.6 | –
343.15 K, m1 = 1.998 | 417.3 | –
343.15 K, m1 = 3.177 | 416.5 | –
348.15 K, m1 = 0.0196 | 427.6 | 975.89
348.15 K, m1 = 0.0506 | 422.8 | 977.36
348.15 K, m1 = 0.1042 | 425.4 | 979.79
348.15 K, m1 = 0.2591 | 424.9 | 986.84
348.15 K, m1 = 0.5092 | 424.3 | 997.49
348.15 K, m1 = 0.9969 | 423.3 | 1017.01
348.15 K, m1 = 1.998 | 420.1 | 1052.65
348.15 K, m1 = 3.177 | 419.3 | 1084.97
353.15 K, m1 = 0.0196 | 429.6 | –
353.15 K, m1 = 0.0506 | 424.8 | –
353.15 K, m1 = 0.1042 | 427.8 | –
353.15 K, m1 = 0.2591 | 427.3 | –
353.15 K, m1 = 0.5092 | 426.7 | –
353.15 K, m1 = 0.9969 | 425.7 | –
353.15 K, m1 = 1.998 | 422.6 | –
353.15 K, m1 = 3.177 | 421.8 | –
358.15 K, m1 = 0.0196 | 431.8 | 969.65
358.15 K, m1 = 0.0506 | 426.7 | 971.12
358.15 K, m1 = 0.1042 | 430.1 | 973.52
358.15 K, m1 = 0.2591 | 429.5 | 980.54
358.15 K, m1 = 0.5092 | 428.9 | 991.18
358.15 K, m1 = 0.9969 | 427.9 | 1010.61
358.15 K, m1 = 1.998 | 424.9 | 1046.1
358.15 K, m1 = 3.177 | 424 | 1078.29
363.15 K, m1 = 0.0196 | 433.8 | –
363.15 K, m1 = 0.0506 | 427.7 | –
363.15 K, m1 = 0.1042 | 431.7 | –
363.15 K, m1 = 0.2591 | 431.2 | –
363.15 K, m1 = 0.5092 | 430.7 | –
363.15 K, m1 = 0.9969 | 429.8 | –
363.15 K, m1 = 1.998 | 426.9 | –
363.15 K, m1 = 3.177 | 425.9 | –
368.15 K, m1 = 0.0196 | – | 962.93
368.15 K, m1 = 0.0506 | – | 964.44
368.15 K, m1 = 0.1042 | – | 966.8
368.15 K, m1 = 0.2591 | – | 973.76
368.15 K, m1 = 0.5092 | – | 984.4
368.15 K, m1 = 0.9969 | – | 1003.76
368.15 K, m1 = 1.998 | – | 1039.13
368.15 K, m1 = 3.177 | – | 1071.22
